Source: patent US20170298314A1, “NANO-DROPLET PLATE” (Research Foundation of the City University of New York, priority 2016, published 2017)

Test system: HEK 293 cells
Assay: Penetration of FAM-labeled cell permeable peptide into HEK 293 cells in alginate gel drops, CLSM imaging
Format: cell-based, Human
Settings: 15 μg/mL, 5 mins incubation, 1% w/v alginate, 63× oil immersion lens
Description: High resolution observation of reactions between peptides and cells. Not only should proteins and peptides diffuse through the gel, they should also be able to react with cells, for drug screening applications. […] Sodium alginate solution (1% w/v) was mixed with a HEK 293 cell suspension and used as a source solution for single dispensing on 750 μm diameter nDAP anvils using a single robotically controlled rod. The alginate was cured with 1% calcium chloride for 5 min. […] The holder was filled with medium and imaged using a confocal microscope (CLSM). After the cells were imaged, a 15 μg/mL solution of (Arg)9 was introduced using a syringe, displacing the medium. […] The holder enables observation of single cells at high resolution while permitting the exchange of solutions without interfering with the gel anchor on the nDAPs.

**Q.** How did the “penetration into HEK 293 cells through gel” value turn out when (Arg)9 was run?
**A.** Two cells with cell permeable protein were clearly seen
